ChEMBL document CHEMBL2150997, “Profiling of a prescription drug library for potential renal drug-drug interactions mediated by the organic cation transporter 2” (J Med Chem, 2011)

How the values were obtained:
[1] = Protein binding in human plasma; format: ADME, cell-free; conditions: read-out: PPB (converted)
[2] = molecular target: T1, Multidrug and toxin extrusion protein 1 (Homo sapiens, UniProt Q96FL8)
T1 sequence (Q96FL8 whole entry): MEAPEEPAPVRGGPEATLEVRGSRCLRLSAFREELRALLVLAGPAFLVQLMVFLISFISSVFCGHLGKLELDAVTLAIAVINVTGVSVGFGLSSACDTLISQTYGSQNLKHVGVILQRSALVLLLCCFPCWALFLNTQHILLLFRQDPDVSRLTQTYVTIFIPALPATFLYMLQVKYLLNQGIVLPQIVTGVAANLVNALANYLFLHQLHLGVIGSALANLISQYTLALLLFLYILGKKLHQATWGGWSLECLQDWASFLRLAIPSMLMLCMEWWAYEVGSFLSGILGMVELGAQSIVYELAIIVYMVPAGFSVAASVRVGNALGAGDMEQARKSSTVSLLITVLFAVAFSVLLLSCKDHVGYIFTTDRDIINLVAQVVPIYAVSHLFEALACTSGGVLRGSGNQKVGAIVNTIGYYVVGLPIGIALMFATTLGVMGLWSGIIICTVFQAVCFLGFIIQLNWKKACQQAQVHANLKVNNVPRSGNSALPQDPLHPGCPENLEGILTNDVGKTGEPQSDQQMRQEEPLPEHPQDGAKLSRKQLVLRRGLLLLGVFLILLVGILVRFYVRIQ
Description: Inhibition of human MATE1 expressed in HEK-293-Flp-In cells incubated for 3 mins by ASP+ substrate uptake assay

[3] = molecular target: T2, Multidrug and toxin extrusion protein 2 (Homo sapiens, UniProt Q86VL8)
T2 sequence (Q86VL8 whole entry): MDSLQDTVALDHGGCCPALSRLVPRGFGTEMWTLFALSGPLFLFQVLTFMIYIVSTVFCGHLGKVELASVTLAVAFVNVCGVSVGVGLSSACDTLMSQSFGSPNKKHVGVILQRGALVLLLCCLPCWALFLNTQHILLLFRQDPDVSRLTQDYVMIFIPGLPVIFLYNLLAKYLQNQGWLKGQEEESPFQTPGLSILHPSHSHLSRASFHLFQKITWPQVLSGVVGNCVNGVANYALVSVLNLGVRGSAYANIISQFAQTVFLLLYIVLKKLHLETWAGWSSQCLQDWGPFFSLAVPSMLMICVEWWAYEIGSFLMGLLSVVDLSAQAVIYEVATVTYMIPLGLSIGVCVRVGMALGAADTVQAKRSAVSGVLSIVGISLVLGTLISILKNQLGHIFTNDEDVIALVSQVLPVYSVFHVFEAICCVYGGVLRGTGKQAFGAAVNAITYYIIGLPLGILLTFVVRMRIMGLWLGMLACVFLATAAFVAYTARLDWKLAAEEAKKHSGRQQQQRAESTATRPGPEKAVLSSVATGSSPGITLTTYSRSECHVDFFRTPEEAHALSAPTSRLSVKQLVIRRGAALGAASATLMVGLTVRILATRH
Description: Inhibition of human MATE2-K expressed in HEK-293-Flp-In cells incubated for 3 mins by ASP+ substrate uptake assay

[4] = molecular target: T3, Solute carrier family 22 member 1 (Homo sapiens, UniProt O15245); format: ADME, cell-based
T3 sequence (O15245 whole entry): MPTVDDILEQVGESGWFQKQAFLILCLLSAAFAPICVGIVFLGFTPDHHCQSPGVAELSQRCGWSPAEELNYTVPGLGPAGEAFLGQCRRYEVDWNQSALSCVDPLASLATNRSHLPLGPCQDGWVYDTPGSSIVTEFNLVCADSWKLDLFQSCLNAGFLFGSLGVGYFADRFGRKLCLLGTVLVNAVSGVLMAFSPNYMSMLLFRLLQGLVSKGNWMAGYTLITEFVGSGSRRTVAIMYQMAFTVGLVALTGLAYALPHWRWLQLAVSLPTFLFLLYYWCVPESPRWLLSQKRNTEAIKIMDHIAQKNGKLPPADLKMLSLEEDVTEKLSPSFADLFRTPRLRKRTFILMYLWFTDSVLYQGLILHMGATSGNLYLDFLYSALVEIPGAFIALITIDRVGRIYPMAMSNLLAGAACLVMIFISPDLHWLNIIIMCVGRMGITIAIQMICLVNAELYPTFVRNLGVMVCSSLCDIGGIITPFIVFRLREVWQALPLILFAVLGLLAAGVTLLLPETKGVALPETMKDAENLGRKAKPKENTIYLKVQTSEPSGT
Description: Inhibition of human OCT1 expressed in HEK-293-Flp-In cells incubated for 3 mins by ASP+ substrate uptake assay

[5] = Cmax in human; format: ADME, organism-based; conditions: in vivo
[6] = molecular target: T4, Solute carrier family 22 member 2 (Homo sapiens, UniProt O15244); format: ADME, cell-based
T4 sequence (O15244 whole entry): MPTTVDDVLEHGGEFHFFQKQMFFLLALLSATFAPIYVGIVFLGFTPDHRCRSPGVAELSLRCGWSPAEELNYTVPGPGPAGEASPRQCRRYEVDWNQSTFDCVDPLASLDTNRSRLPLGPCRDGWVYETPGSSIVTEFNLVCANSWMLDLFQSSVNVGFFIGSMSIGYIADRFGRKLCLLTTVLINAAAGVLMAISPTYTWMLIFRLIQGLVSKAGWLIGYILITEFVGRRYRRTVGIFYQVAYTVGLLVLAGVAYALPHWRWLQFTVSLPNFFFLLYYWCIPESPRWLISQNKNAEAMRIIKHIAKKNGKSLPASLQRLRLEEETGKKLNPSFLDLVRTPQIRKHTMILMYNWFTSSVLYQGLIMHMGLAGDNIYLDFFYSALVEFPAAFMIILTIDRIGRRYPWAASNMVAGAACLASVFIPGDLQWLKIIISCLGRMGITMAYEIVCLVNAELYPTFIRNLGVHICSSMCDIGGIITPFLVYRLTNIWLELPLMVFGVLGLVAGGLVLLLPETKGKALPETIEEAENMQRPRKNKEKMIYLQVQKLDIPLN
Description: Inhibition of human OCT2 expressed in HEK-293-Flp-In cells incubated for 3 mins by ASP+ substrate uptake assay

[7] = cells; conditions: Homo sapiens, 0.05 h
Description: Inhibition of human OCT2 A270S mutant expressed in HEK-293-Flp-In cells incubated for 3 mins by ASP+ substrate uptake assay

Compound	fraction unbound [1]	IC50 [2] [µM]	IC50 [3] [µM]	IC50 [4] [µM]	Cmax [5] [µM]	IC50 [6] [µM]	IC50 [7] [µM]
CC(C)N(CCC(C(N)=O)(c1ccccc1)c1ccccn1)C(C)C (centres undefined) [DISOPYRAMIDE]	0.5	66	> 100	–	–	–	–
OCCN(CCO)c1nc(N2CCCCC2)c2nc(N(CCO)CCO)nc(N3CCCCC3)c2n1 [DIPYRIDAMOLE]	–	–	–	81	–	–	–
CN(C)CCCN1c2ccccc2CCc2ccccc21 [IMIPRAMINE]	0.1	10	> 100	37	–	–	–
CN/C(=N\CCSCc1nc[nH]c1C)NC#N [CIMETIDINE]	0.81	–	39	> 100	11.9	23	20
Cc1nccn1CC1CCc2c(c3ccccc3n2C)C1=O (centres undefined) [ONDANSETRON]	–	–	–	> 100	0.13	–	–
Nc1c2c(nc3ccccc13)CCCC2 [TACRINE]	0.45	–	> 100	83	–	–	–
